# Source: patent US20170073306A1, “POTENT INHIBITORS OF HUMAN CARBONIC ANHYDRASE II AND BOVINE CARBONIC ANHYDRASE II AND THEIR MECHANISM OF ACTION” (priority 2015, published 2017)
# Like-named read-outs stand apart in the source and are kept apart here.
# Key:
# [1] = target: T1, Bovine Carbonic Anhydrase-II (bovine erythrocyte CA-II) (Bos taurus, UniProt P00921); assay: Bovine carbonic anhydrase-II inhibition, 4-nitrophenyl acetate spectrophotometric assay; type: biochemical
# T1 construct: pure bovine erythrocyte CA-II; from tissue; host or cells: bovine erythrocytes
# T1 sequence (P00921 whole entry): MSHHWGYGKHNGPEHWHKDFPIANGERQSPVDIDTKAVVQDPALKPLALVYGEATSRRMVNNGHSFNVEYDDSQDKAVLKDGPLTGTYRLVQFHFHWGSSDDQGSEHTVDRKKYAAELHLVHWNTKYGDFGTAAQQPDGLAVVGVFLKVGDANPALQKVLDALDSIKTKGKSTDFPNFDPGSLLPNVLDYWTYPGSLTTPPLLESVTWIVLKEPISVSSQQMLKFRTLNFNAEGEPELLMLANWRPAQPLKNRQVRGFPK
# Procedure: (§1) Nineteen different analogues of benzamide sulfonamides were evaluated for carbonic anhydrase-II inhibition. The rate of catalyzed reaction was monitored by the amount of product formation by using the chromogenic substrate i.e., 4-nitrophenyl acetate.
# 4-Nitrophenyl acetate (4-NPA) is a colorless compound which is used as a substrate in carbonic anhydrase inhibition assay. The reaction involves the hydrolysis of 4-nitrophenyl acetate into […] and 4-nitrophenol a yellow colored compound. During this experiment, HEPES-tris buffer was used at 20 mM concentration with pH 7.4.
# After 15 min of incubation of the enzyme with the test compound, the substrate was added to initiate the reaction. The reaction was carried out in triplicate with different concentrations of test compounds was used.
# In this assay protocol, the reaction was performed by using a 96-well flat bottom plate.
# The amount of product formation was measured at 400 nm for 30 min with 1 min interval, multiplate reader SPECTRA max 340 (Molecular Devices, CA, USA) was used to monitor the product formation.
# The enzyme inhibitory activities were calculated using the following formula:
# % Inhibition=100−(O.D of test/O.D of control)*100
# (§2) Where test is the enzyme activity with sample and control is the enzyme activity without sample. The IC50 of the compounds were calculated by using EZ-Fit Enzyme Kinetic Program (Perrella Scientific Inc. Amhrest, U.S.A).
# MTT cytotoxicity assay = type: cell-based; conditions: mouse, 3T3 mouse fibroblast cells, 3T3 cells, 50% growth inhibition, read-out: Cytotoxicity IC50 ± SD
# Procedure: Cytotoxicity studies were performed using a colorimetric assay that measures the reduction of 3-(4,5-dimethythiazol-2-yl)-2,5-diphenyl tetrazolium bromide (MTT) (yellow in color), by mitochondrial enzyme (i.e. succinate dehydrogenase). The MTT enters into the mitochondria of cell, where it is reduced to an insoluble formazan salt (purple in color). The extent of MTT reduction to formazan within cells was measured spectrophotometrically. As reduction of MTT can only occur in metabolically active cells the level of activity is actually a measure of the viability of the cells^22.
# Mouse fibroblast cell line 3T3 was cultured in DMEM, supplemented with 5% of FBS, 100 IU/ml of penicillin and 100 μg/ml of streptomycin, and kept at 37° C. in 5% CO2 incubator. For the preparation of cell culture 100 μL/well of cell solution (5×10^4 cells/ml) was added into 96-well plate. The plate was incubated for overnight, and fresh medium was added after the removal of old medium. The test compounds were also added in different concentrations into the plate and plate was again incubated for 48 hrs. After the completion of this incubation period 200 μL MTT (0.5 mg/ml) was added and plate was again incubated for 4 hrs, after this final incubation 100 μL of DMSO was added to each well. The level of MTT reduction to formazan was evaluated by change in absorbance at 540 nm using a micro plate reader (Spectra Max plus, Molecular Devices, CA, USA).
# [2] = target: T2, Bovine Carbonic Anhydrase-II (Bos taurus, UniProt P00921); assay: Kinetics studies (Lineweaver-Burk, Dixon plots) against Bovine Carbonic Anhydrase-II; type: biochemical; design: Vmax app: unit not given here; conditions: for Type of Inhibition: Lineweaver-Burk / Dixon plots; for Vmax: enzyme Vmax without inhibitor; for Vmax app: apparent Vmax with inhibitor (0.2-0.00625 μM)
# T2 construct: pure bovine erythrocyte CA-II; from tissue; host or cells: bovine erythrocytes
# T2 sequence (P00921 whole entry): as above
# Procedure: FIG. 2B depicts the double reciprocal plot for Ki determination which is between Slope Vs Inhibitor Conc.
# FIG. 3B depicts the double reciprocal plot for Ki determination which is between Slope Vs Inhibitor Conc.
# Kinetics studies were performed for each analogue. […] The Grafit version 7.0 was used for the construction of Lineveawer-Burk plots and their secondary replots.
# [3] = target: T3, Human Carbonic Anhydrase-II (human erythrocyte CA-II) (Homo sapiens, UniProt P00918); assay: HCA-II inhibitory activity, 4-nitrophenyl acetate spectrophotometric assay; type: biochemical; conditions: 4-nitrophenyl acetate 0.7 mM, pH 7.4, 25° C., 15 min preincubation; read-out: IC50 ± S.E.M. HCA-II
# T3 construct: purified human erythrocyte CA-II; from tissue; host or cells: human erythrocytes
# Procedure: as §1
# Hydrolysis of 4-NPA (a colorless compound): yields 4-nitrophenol and […]. The reaction is monitored by quantifying the formation of 4-nitrophenol, a yellow colored compound.
# In successive experiments, HEPES-tris was used as a buffer for the reaction at final concentration of 20 mM, with 7.4 pH. The total reaction volume of 200 μL includes, 140 μL of the HEPES-tris, 20 μL of test compound diluted in DMSO (20 μL of DMSO as a control sample), 20 μL of purified human erythrocyte CA-II (0.1 mg/mL) prepared in deionized water and 20 μL of a solution of 4-NPA (0.7 mM diluted in ethanol). Adhesion of enzyme with the plastic-ware was avoided by the addition of bovine serum albumin (1 mg/mL).
# The 20 μL of test compound was incubated with enzyme for a period of 15 min. The rate of product formation was monitored with the addition of 20 μL substrate prepared in ethanol at a final concentration of 0.7 mM 4-nitrophenyl acetate at 25° C. for a period of 30 min with regular interval of 1 min.
# The assay was performed in triplicates by using 96-well flat bottom plate.
# The enzyme inhibitory activities were calculated using the following formula: […]
# as §2
# [4] = 4-nitrophenyl acetate 0.7 mM, pH 7.4, 15 min preincubation, read-out: IC50 ± S.E.M. BCA-II
# [5] = from secondary replots / Dixon plot, read-out: Ki
SMILES,IC50 [1] [nM],IC50 at 48 h (MTT cytotoxicity assay) [nM],Ki [2] [nM],Type of Inhibition [2],Vmax [2],"IC50 [1, 4] [nM]",IC50 [3] [nM],Vmax app [2],"Ki [2, 5] [nM]"
"NS(=O)(=O)c1ccc(NC(=S)NC(=O)c2ccccc2)cc1 [Compound 1, N-(4-Sulfamoylphenylcarbamothioyl)benzamide]",90 ± 7,> 30000,52,Noncompetitive,99.00 (μM/L/min)^−1,,,,
"NS(=O)(=O)c1ccc(NC(=S)NC(=O)c2ccc(Cl)cc2)cc1 [Compound 2, 4-Chloro-N-(4-sulfamoylphenylcarbamothioyl)benzamide]",,> 30000,,Noncompetitive,80 (μM/L/min)^−1,160 ± 2,210 ± 10,18.45,110
"Cc1ccc(C(=O)NC(=S)Nc2ccc(S(N)(=O)=O)cc2)cc1 [Compound 3, 4-Methyl-N-(4-sulfamoylphenylcarbamothioyl)benzamide]",,> 30000,,Mixed type,80 (μM/L/min)^−1,80 ± 3,90 ± 30,52.63,58
"NS(=O)(=O)c1ccc(NC(=S)NC(=O)c2ccc([N+](=O)[O-])cc2)cc1 [Compound 4, 4-Nitro-N-(4-sulfamoylphenylcarbamothioyl)benzamide]",,> 30000,,Noncompetitive,53.19 (μM/L/min)^−1,130 ± 2,240 ± 40,18.97,220
"NS(=O)(=O)c1ccc(NC(=S)NC(=O)c2cccc(Cl)c2)cc1 [Compound 5, 3-Chloro-N-(4-sulfamoylphenylcarbamothioyl)benzamide]",,> 30000,,Noncompetitive,76.33 (μM/L/min)^−1,140 ± 6,280 ± 60,25.83,250
"NS(=O)(=O)c1ccc(NC(=S)NC(=O)c2cccc([N+](=O)[O-])c2)cc1 [Compound 6, 3-Nitro-N-(4-sulfamoylphenylcarbamothioyl)benzamide]",,> 30000,,Mixed type,82.64 (μM/L/min)^−1,80 ± 4,190 ± 1,17.48,90
"NS(=O)(=O)c1ccc(NC(=S)NC(=O)c2ccccc2[N+](=O)[O-])cc1 [Compound 7, 2-Nitro-N-(4-sulfamoylphenylcarbamothioyl)benzamide]",,> 30000,,Mixed type,71.42 (μM/L/min)^−1,60 ± 5,120 ± 2,19.30,140
"NS(=O)(=O)c1ccc(NC(=S)NC(=O)Cc2ccccc2)cc1 [Compound 8, 2-Phenyl-N-(4-sulfamoylphenylcarbamothioyl)acetamide]",,> 30000,,Mixed type,81.30 (μM/L/min)^−1,70 ± 3,160 ± 1,7.77,35
"Cc1ccccc1C(=O)NC(=S)Nc1ccc(S(N)(=O)=O)cc1 [Compound 9, 2-Methyl-N-(4-sulfamoylphenylcarbamothioyl)benzamide]",,> 30000,,Noncompetitive,90.90 (μM/L/min)^−1,80 ± 2,180 ± 4,14.61,58
"Cc1cccc(C(=O)NC(=S)Nc2ccc(S(N)(=O)=O)cc2)c1 [Compound 10, 3-Methyl-N-(4-sulfamoylphenylcarbamothioyl)benzamide]",,> 30000,,Noncompetitive,62.5 (μM/L/min)^−1,90 ± 2,190,10.61,67
"COc1cccc(C(=O)NC(=S)Nc2ccc(S(N)(=O)=O)cc2)c1 [Compound 11, 3-Methoxy-N-(4-sulfamoylphenylcarbamothioyl)benzamide]",,> 30000,,Noncompetitive,88.49 (μM/L/min)^−1,90 ± 3,190 ± 5,35.21,280
"NS(=O)(=O)c1ccc(NC(=S)NC(=O)c2ccc(Cl)cc2[N+](=O)[O-])cc1 [Compound 12, 4-Chloro-2-nitro-N-(4-sulfamoylphenylcarbamothioyl)benzamide]",,> 30000,,Mixed type,108.69 (μM/L/min)^−1,280 ± 7,460 ± 30,34.12,24
"NS(=O)(=O)c1ccc(NC(=S)NC(=O)c2ccc(F)cc2)cc1 [Compound 13, 4-Fluoro-N-(4-sulfamoylphenylcarbamothioyl)benzamide]",,> 30000,,,,130 ± 20,580 ± 1,,
"COc1cc(C(=O)NC(=S)Nc2ccc(S(N)(=O)=O)cc2)cc(OC)c1OC [Compound 14, 3,4,5-Trimethoxy-N-(4-sulfamoylphenylcarbamothioyl)benzamide]",,> 30000,,,,60,170 ± 2,,
"NS(=O)(=O)c1ccc(NC(=S)NC(=O)c2ccc([N+](=O)[O-])cc2Cl)cc1 [Compound 15, 2-Chloro-4-nitro-N-(4-sulfamoylphenylcarbamothioyl)benzamide]",,> 30000,,,,60 ± 1,160 ± 10,,
"COc1cc(OC)cc(C(=O)NC(=S)Nc2ccc(S(N)(=O)=O)cc2)c1 [Compound 16, 3,5-Dimethoxy-N-(4-sulfamoylphenylcarbamothioyl)benzamide]",,> 30000,,Noncompetitive,72.46 (μM/L/min)^−1,110 ± 5,230 ± 30,37.31,400
"NS(=O)(=O)c1ccc(NC(=S)NC(=O)C2CCCO2)cc1 (stereo not shown) [Compound 17, N-(4-Sulfamoylphenylcarbamothioyl)tetrahydrofuran-2-carboxamide]",,> 30000,,Mixed type,111.11 (μM/L/min)^−1,120 ± 20,270 ± 60,26.88,59
"CCC(C(=O)NC(=S)Nc1ccc(S(N)(=O)=O)cc1)c1ccccc1 (stereo not shown) [Compound 18, 2-Phenyl-N-(4-sulfamoylphenylcarbamothioyl)butanamide]",,> 30000,,Mixed type,42.73 (μM/L/min)^−1,200 ± 1,250 ± 10,12.93,160
